How the values were obtained:
NTAN1 (wild-type) = molecular target: T1, NTAN1 (wild-type) (Homo sapiens, UniProt Q96AB6); assay: In vitro deamidation assay quantified by LC-MS, wild-type NTAN1; type: biochemical; conditions: 200 mM NaCl, 10 mM HEPES-NaOH (pH 7.0); for Deamidation activity on NXAAR peptides: 100 μM peptide, 37 °C, 1-20 min, three independent experiments; for Deamidation with 0.16 μM NTAN1: 0.16 μM NTAN1, 37 °C
T1 construct: The gene for full-length NTAN1 was cloned into pET-21a(+); made in house; host or cells: E. coli Rosetta 2(DE3)
T1 sequence (Q96AB6 1-310): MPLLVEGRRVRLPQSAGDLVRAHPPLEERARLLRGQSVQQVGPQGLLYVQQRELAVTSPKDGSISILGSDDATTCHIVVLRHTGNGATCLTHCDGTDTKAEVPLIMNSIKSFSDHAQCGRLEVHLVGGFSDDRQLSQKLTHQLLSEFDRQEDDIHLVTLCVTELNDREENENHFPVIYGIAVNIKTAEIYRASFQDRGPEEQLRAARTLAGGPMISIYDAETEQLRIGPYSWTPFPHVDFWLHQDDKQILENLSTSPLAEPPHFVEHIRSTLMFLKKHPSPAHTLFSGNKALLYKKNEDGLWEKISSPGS
Procedure: We synthesized codon-optimized NTAN1 gene of which sequence information was provided by Georgiou et al. for protein expression in Escherichia coli. The gene for full-length NTAN1 was cloned into pET-21a(+) (Novagen, Darmstadt, Germany) between Nde1 and Xho1 restriction sites to have C-terminal hexahistidine tag. NTAN1 was overexpressed in the Rosetta 2(DE3), E. coli strain (Novagen, Darmstadt, Germany). The transformed cells were grown in Luria-Bertani media containing ampicillin at 37 °C until the optical density at 600 nm reached 0.5 and protein expression was induced by 0.5 mM isopropyl β-D-1-thiogalactopyranoside. The cells were shake-incubated for additional for 16 h at 18 °C and harvested by centrifugation at 6000 × g for 10 min (Figure S1). The harvested cells were resuspended in a buffer containing 500 mM NaCl, 20 mM Tris-HCl (pH 7.5), 35 mM imidazole, and 1 mM phenylmethylsulfonyl fluoride and subsequently lysed by sonication. Lysed cells were centrifuged at 35,000 × g for 1 h. The resultant supernatant was filtered with 0.45 μm filter device (Sartorius, Göttingen, Germany) and loaded onto a 5-mL HiTrap Chelating HP column (GE Healthcare, Chicago, IL, USA) which had been pre-charged with Ni^2+ and equilibrated with a buffer containing 500 mM NaCl, 20 mM Tris-HCl (pH 7.5), and 35 mM imidazole. After nonspecifically bound proteins were eluted, the retained proteins were eluted by addition of an increasing gradient of a buffer containing 500 mM NaCl, 20 mM Tris-HCl (pH 7.5), and 1 M imidazole. The proteins were loaded onto a HiPrep Desalting 26/10 column (GE Healthcare, Chicago, IL, USA) and eluted with a buffer containing 50 mM NaCl and 20 mM Tris-HCl (pH 7.5) The eluates were loaded onto a HiTrap 5-mL Q HP column (GE Healthcare, Chicago, IL, USA) which had been equilibrated with a buffer containing 50 mM NaCl and 20 mM Tris-HCl (pH 7.5). After nonspecifically bound proteins were eluted, the retained proteins were eluted with addition of increasing gradient of a buffer containing 1 M NaCl and 20 mM Tris-HCl (pH 7.5). Finally, the proteins were concentrated, loaded onto a HiLoad 16/600 Superdex 200 pg column (GE Healthcare, Chicago, IL, USA), and eluted with a buffer containing 200 mM NaCl and 10 mM HEPES-NaOH (pH 7.0). Purity of the protein fractions was checked by sodium dodecyl sulfate-polyacrylamide gel electrophoresis after each purification step.
Peptides with Nt-Asn which mimic potential substrates of NTAN1 were synthesized: NRA, NRAA, NRAAA, NRQVA, NRQVAA, NRQVAAA, NFAAR, NLAAR, NRAAR, NAAAR, NNAAR, NPAAR, NGAAR, and NDAAR. Non-Nt-Asn peptides, QRAAA and VRAAA, were also synthesized. NTAN1 (at concentrations of 0.5 μM, 0.16 μM, or 0.04 μM) and the peptides (at a concentration of 100 μM) were mixed and incubated at 37 °C in a buffer containing 200 mM NaCl and 10 mM HEPES-NaOH (pH 7.0). The reactants sampled at various incubation time points (of 1, 2, 5, 10, and 20 min) were heat-inactivated at 95 °C for 10 min to stop further reaction. Subsequently, the samples were centrifuged at 20,000 × g and diluted 1/50 times with double-deionized water (DW) for liquid chromatography-mass spectrometry (LC-MS) analysis. The deamidation coefficient of peptides catalyzed by NTAN1 was assessed by the slope of exponential curve drawn from the concentration of the substrate over incubation time.
The peptides were quantified by an LC-MS system (1260 Infinity/6430 Triple Quad, Agilent Technologies) equipped with a binary pump (G1312B), a thermostated column compartment (G1316C), a thermostat (G1330B), and an autosampler (G1367E). Chromatographic separation was carried out by injecting an aliquot (2 µL) of analytical sample into a Kinetex C18 column (2.6 μm, 100 Å, 100 × 4.6 mm; Phenomenex, Torrance, CA, USA) with a C18 guard column (4 × 2.0 mm; Phenomenex, Torrance, CA, USA). The mobile phase consisted of acetonitrile and DW (30:70, v/v) with 0.2% (v/v) formic acid. […]

[1] = molecular target: T2, N-terminal asparagine amidohydrolase 1 (NTAN1) C75S mutant (human, UniProt Q96AB6 1-310, C75S); assay: SPR; NTAN1 C75S amine-coupled to a CM5 chip (3000 RU), Biacore T200; peptides at 1.95-62.50 μM injected for 120 s, 30 μL/min; 150 mM NaCl, 10 mM HEPES-NaOH pH 7.2, 0.1 mM TCEP, 0.001% polysorbate 20; 1:1 Langmuir model; conditions: both partners purified
T2 construct: N-terminal asparagine amidohydrolase 1 (NTAN1), human, full length, 310 residues; codon-optimized synthetic gene in pET-21a(+); catalytic Cys75 changed to Ser; C75S is not in the list of mutants in section 2.2; No step that cleaves the tag is described; source: E. coli Rosetta 2(DE3), purified as for NTAN1 (Ni2+ chelating, Q anion exchange, Superdex 200)
T2 sequence (looked up): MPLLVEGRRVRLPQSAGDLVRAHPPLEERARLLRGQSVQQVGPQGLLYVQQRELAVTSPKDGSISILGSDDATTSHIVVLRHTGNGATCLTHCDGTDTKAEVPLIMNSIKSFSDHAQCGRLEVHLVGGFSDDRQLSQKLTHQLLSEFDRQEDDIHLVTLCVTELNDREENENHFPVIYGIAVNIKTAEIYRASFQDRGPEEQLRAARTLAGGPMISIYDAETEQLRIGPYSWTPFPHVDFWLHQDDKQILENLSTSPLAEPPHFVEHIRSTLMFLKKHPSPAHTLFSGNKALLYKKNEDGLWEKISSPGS

[2] = molecular target: T2, N-terminal asparagine amidohydrolase 1 …; assay: crystal structure; crystals of NTAN1 C75S soaked in reservoir solution with 10 mM synthetic peptide for 16 hr; two molecules in the asymmetric unit; conditions: both partners purified
[3] = molecular target: T3, NTAN1 S254A mutant (human) (UniProt Q96AB6)
T3 sequence: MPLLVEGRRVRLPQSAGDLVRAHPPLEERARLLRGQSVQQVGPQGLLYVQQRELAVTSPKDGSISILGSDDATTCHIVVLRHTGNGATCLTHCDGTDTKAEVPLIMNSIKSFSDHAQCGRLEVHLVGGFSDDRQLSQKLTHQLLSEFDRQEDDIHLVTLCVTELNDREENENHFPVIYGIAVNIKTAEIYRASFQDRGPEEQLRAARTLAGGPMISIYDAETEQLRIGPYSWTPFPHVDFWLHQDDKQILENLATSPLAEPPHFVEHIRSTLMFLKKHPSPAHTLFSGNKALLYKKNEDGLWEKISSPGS

[4] = 0.5 μM NTAN1 (Figure 2d; NNAAR also at 0.04 μM, Figure 2c)

Which “Deamidation activity on NXAAR peptides” value (NTAN1 (wild-type); [4]) does the source give for “NDAAR [NXAAR substrate peptide, second-position Asp]” here?
Its value is “low deamidation activities”.

For “NFAAR [NXAAR substrate pentapeptide, second-position Phe]”, which “Deamidation activity on NXAAR peptides” value (NTAN1 (wild-type); 0.04 μM NTAN1 (Figure 2c)) is on record?
The value was “most efficiently deamidated”.

How did the “Deamidation activity on NXAAR peptides” value (NTAN1 (wild-type); [4]) turn out when “NGAAR [NXAAR substrate peptide, second-position Gly]” was run?
Its value is “low deamidation activities”.

With “NLAAR [NXAAR substrate pentapeptide, second-position Leu]” as the molecule, how does the “Deamidation activity on NXAAR peptides” value (NTAN1 (wild-type); 0.04 μM NTAN1 (Figure 2c)) read?
The value was “most efficiently deamidated”.

With “NNAAR [NXAAR substrate peptide, second-position Asn]” as the molecule, how does the “Deamidation activity on NXAAR peptides” value (NTAN1 (wild-type); [4]) read?
The value was “low deamidation activities”.

For “NPAAR [NXAAR substrate peptide, second-position Pro]”, which “Deamidation activity on NXAAR peptides” value (NTAN1 (wild-type); [4]) is on record?
Its value is “low deamidation activities”.

How did the “Deamidation activity on NXAAR peptides” value (NTAN1 (wild-type); 0.04 μM NTAN1 (Figure 2c)) turn out when “NRAAR [NXAAR substrate peptide, second-position Arg]” was run?
Its value is “moderate deamidation activity”.

For “NRQVA [synthesized modified Nt-Asn peptide, model substrate of NTAN1]”, which “Deamidation with 0.16 μM NTAN1” value (NTAN1 (wild-type)) is on record?
Its value is “deamidated too rapidly”.

With “NRQVAA [synthesized modified Nt-Asn peptide, model substrate of NTAN1]” as the molecule, how does the “Deamidation with 0.16 μM NTAN1” value (NTAN1 (wild-type)) read?
The value was “deamidated too rapidly”.

“NRQVAAA [synthesized modified Nt-Asn peptide, model substrate of NTAN1]” was tested. Which “Deamidation with 0.16 μM NTAN1” value (NTAN1 (wild-type)) did it give?
Its value is “deamidated too rapidly”.

B1: NLAAR peptide (peptide)
peptide: NLAAR
notes: model substrate peptide with N-terminal Asn; also called NLAAR pentapeptide; source: synthetic peptide
How did the Kd [1] turn out when B1 was run?
Its Kd is 0.0268 µM.

B2: NAAAR peptide (peptide)
peptide: NAAAR
notes: model substrate peptide with N-terminal Asn; source: synthetic peptide
Which Kd [1] does the source give for B2 here?
Its Kd is 4.67 µM.

B3: NFAAR peptide (peptide)
peptide: NFAAR
notes: model substrate peptide with N-terminal Asn; also called NFAAR pentapeptide; source: synthetic peptide
Does B3 bind [2]?
Result: binds

NRAAA [NRAAA peptide] was tested. Which in vitro deamidation of the NRAAA peptide, LC-MS, deamidation rate against wild-type NTAN1 (fold lower than wild type) [3] did it give?
Its in vitro deamidation of the NRAAA peptide, LC-MS, deamidation rate against wild-type NTAN1 (fold lower than wild type) is 3.

Source: article PMC7022378, “Structural Analyses on the Deamidation of N-Terminal Asn in the Human N-Degron Pathway” (Biomolecules, 2020)
